Here are results for 9 molecules from publication PMC2783590 (Nature chemical biology, 2009).

Assay [1] has as its system HA-asAkt1/2/3 (Thr308, Ser473) phosphorylation. Format: cell-based, Human. Conditions: then 2.5 µM PrINZ 30 min; for hyperphosphorylation induced by PrINZ (Thr308 and Ser473): pre-treatment 10 min; for PrINZ induced Thr308 phosphorylation / PrINZ induced hyperphosphorylation at Ser473: pre-treatment 10 min (10 µM BX-795, 2.5 µM PP242).
A further assay concerns the target myr-HA-wtAkt1 (Homo sapiens, UniProt P31749). Put plainly: In vitro IP kinase assay for Akt variants. Format: biochemical. Conditions: myr-HA-wtAkt1 expressed in HEK293T cells, immunoprecipitated; 50 µM ATP.
Another assay concerns the target myr-HA-asAkt1 (Homo sapiens, UniProt P31749, M227G). Put plainly: In vitro IP kinase assay for Akt variants. Conditions: myr-HA-asAkt1 expressed in HEK293T cells, immunoprecipitated; 50 µM ATP. Format: biochemical.
A further assay concerns the target myr-HA-wtAkt2 (Homo sapiens, UniProt P31751). Put plainly: In vitro IP kinase assay for Akt variants. To be noted: myr-HA-wtAkt2 expressed in HEK293T cells, immunoprecipitated; 50 µM ATP. Type of assay: biochemical.
A further assay concerns the target myr-HA-asAkt2 (Homo sapiens, UniProt P31751, M229G). Put plainly: In vitro IP kinase assay for Akt variants. Type of assay: biochemical. To be noted: myr-HA-asAkt2 expressed in HEK293T cells, immunoprecipitated; 50 µM ATP.
The target of the next assay is myr-HA-wtAkt3 (Homo sapiens, UniProt Q9Y243). Briefly: In vitro IP kinase assay for Akt variants. Format: biochemical. To be noted: myr-HA-wtAkt3 expressed in HEK293T cells, immunoprecipitated; 50 µM ATP.
myr-HA-wtAkt3, sequence (Q9Y243 whole entry): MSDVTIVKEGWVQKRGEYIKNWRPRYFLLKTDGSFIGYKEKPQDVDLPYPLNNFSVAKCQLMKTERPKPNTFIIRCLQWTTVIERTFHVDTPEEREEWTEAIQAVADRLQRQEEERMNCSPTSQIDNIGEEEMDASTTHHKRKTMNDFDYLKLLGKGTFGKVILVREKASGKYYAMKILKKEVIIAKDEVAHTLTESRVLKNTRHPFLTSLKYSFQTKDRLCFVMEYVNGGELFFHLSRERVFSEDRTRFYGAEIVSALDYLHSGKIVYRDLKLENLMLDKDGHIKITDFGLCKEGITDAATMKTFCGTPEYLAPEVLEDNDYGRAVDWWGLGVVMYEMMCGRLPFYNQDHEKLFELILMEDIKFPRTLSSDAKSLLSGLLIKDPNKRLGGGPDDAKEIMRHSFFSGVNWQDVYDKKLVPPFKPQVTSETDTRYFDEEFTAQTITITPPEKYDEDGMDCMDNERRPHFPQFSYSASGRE
Another assay has as its target myr-HA-asAkt3 (Homo sapiens, UniProt Q9Y243, M225G). Put plainly: In vitro IP kinase assay for Akt variants. Format: biochemical. Conditions: myr-HA-asAkt3 expressed in HEK293T cells, immunoprecipitated; 50 µM ATP.
Assay [2] has as its system Akt (Thr308, Ser473) and GSK3β (Ser9) phosphorylation. Type of assay: cell-based, Human. To be noted: serum-starved HEK293, 20 min drug then 50 ng/ml IGF-1 10 min.
For assay [3], the system named is HA-asAkt1 (Thr308, Ser473) phosphorylation. Put plainly: HEK293 cells transfected with HA-asAkt1, immunoblotting. To be noted: 30 min, serially diluted inhibitor. Type of assay: cell-based, Human. (In general: In western blotting, separated proteins are transferred to a membrane and probed.)
The subject of assay [4] is GSK3β (Ser9) phosphorylation. Put plainly: HEK293 cells transfected with myr-HA-asAkt1, immunoblotting. Conditions: myr-HA-asAkt1, 30 min, various concentrations. Type of assay: cell-based, Human.
The subject of assay [5] is myr-HA-asAkt1-KD or myr-HA-asAkt2-KD (Thr308, Ser473) phosphorylation. Put plainly: HEK293 cells expressing kinase dead. Type of assay: cell-based, Human. To be noted: 30 min, 2.5 µM PrINZ or 10 µM 3-IB-PP1.
Assay [6] relates to HA-asAkt1 and flag-wtAkt1 (Thr308, Ser473) phosphorylation. Format: cell-based, Human. To be noted: 30 min, various concentrations.
A further assay has as its system 220 purified kinases. Put plainly: SelectScreen profiling, whole panel. Type of assay: biochemical. To be noted: 1 µM.
In assay [7] the test system is myr-HA-asAkt1 (Thr308, Ser473) phosphorylation. Type of assay: cell-based, Human. Conditions: 2.5 µM PIK90 10 min, then 2.5 µM PrINZ 30 min.
Assay [8] concerns Akt membrane localization. Put plainly: Immunofluorescence of Akt in untransfected HEK293 cells. Format: cell-based, Human.
In a further assay the test system is Akt. To be noted: cited from earlier work.
Assay [9] concerns Akt (Thr308) and rpS6 (Ser240/244) phosphorylation in L6 cells. Briefly: Insulin stimulated L6 cells, immunoblotting. Type of assay: cell-based. To be noted: serum-starved, 20 min drug then 100 nM insulin 10 min.
A further assay has as its system PC-3 tumor. To be noted: PC-3 xenograft; cited from earlier work.
The next assay has as its system MiaPaCa-2 tumor. To be noted: MiaPaCa-2 xenograft; cited from earlier work.
Another assay has as its system 3T3-Akt1 tumor. To be noted: 3T3-Akt1 xenograft; cited from earlier work.

myr-HA-asAkt1, sequence (P31749 whole entry M227G): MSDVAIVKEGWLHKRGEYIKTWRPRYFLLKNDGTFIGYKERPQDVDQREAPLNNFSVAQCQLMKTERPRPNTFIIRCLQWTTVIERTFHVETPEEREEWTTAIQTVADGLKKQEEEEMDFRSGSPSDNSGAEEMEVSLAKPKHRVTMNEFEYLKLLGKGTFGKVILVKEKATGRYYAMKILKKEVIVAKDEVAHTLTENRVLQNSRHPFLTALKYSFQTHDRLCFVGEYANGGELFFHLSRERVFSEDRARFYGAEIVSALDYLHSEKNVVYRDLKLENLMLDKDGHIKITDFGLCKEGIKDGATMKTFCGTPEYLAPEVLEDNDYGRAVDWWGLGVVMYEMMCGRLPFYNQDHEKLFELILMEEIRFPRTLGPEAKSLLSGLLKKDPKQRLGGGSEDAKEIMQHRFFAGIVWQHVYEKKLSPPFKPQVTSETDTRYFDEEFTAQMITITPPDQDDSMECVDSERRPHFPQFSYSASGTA
myr-HA-wtAkt1, sequence (P31749 whole entry): as the sequence (P31749 whole entry M227G) above, with G227M counted along it
myr-HA-wtAkt2, sequence (P31751 whole entry): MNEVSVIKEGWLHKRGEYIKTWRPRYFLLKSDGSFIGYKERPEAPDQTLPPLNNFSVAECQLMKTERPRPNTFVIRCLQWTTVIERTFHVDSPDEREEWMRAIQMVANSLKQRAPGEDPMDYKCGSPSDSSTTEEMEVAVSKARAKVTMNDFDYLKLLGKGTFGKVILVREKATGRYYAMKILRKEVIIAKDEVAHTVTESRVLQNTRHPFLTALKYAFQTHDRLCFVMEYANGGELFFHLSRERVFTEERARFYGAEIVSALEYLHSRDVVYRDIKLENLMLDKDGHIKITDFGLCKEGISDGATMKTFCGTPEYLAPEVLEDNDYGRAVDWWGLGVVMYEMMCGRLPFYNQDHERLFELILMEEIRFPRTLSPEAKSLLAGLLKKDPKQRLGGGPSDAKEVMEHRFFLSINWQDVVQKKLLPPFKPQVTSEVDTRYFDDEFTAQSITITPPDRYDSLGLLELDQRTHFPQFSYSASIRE
myr-HA-asAkt2, sequence (P31751 whole entry M229G): as the sequence (P31751 whole entry) above, with M229G counted along it
myr-HA-asAkt3, sequence (Q9Y243 whole entry M225G): as the sequence (Q9Y243 whole entry) above, with M225G counted along it

With `O=c1[nH]c2ccccc2n1C1CCN(Cc2ccc(-c3nc4cc5nc[nH]c5cc4nc3-c3ccccc3)cc2)CC1` [Akti-1,2], the “hyperphosphorylation induced by PrINZ (Thr308 and Ser473)” value in assay [1] is listed as “dose-dependent inhibition”.
Consider `CCCc1cc(-c2cncc(OC[C@@H](N)Cc3c[nH]c4ccccc34)c2)cc2c(C)n[nH]c12` [PrINZ], for which the “IC50 (nM) wtAkt1” value against myr-HA-wtAkt1 is listed as “did not inhibit”. For the same molecule, the “IC50 (nM) asAkt1” value on myr-HA-asAkt1 was “low nanomolar range”. Also, the “IC50 (nM) wtAkt2” value on myr-HA-wtAkt2 is recorded as “did not inhibit”. Besides, at myr-HA-asAkt2, the “IC50 (nM) asAkt2” value is given as “low nanomolar range”. In addition, at myr-HA-wtAkt3, the “IC50 (nM) wtAkt3” value is “did not inhibit”. Moreover, the “IC50 (nM) asAkt3” value against myr-HA-asAkt3 is “low nanomolar range”. Also, in assay [2], the “Akt phosphorylation at Thr308 and Ser473” value is on record as “unperturbed”; the “phosphorylation on GSK3β at Ser9” value was “unperturbed”. The HA-asAkt1 hyperphosphorylation result in assay [3] is given as “induced”. The “phosphorylation level of Ser9 on GSK3β” value in assay [4] is “decreased”. For the same molecule, in assay [5], the “hyperphosphorylation on Thr308 and Ser473 of kinase dead mutants” value is “induced striking hyperphosphorylation”. Moreover, in assay [6], the “Thr308 and Ser473 phosphorylation after immunoprecipitation” value is “induced only on HA-asAkt1”.
Turning to `CC(C)(C)n1nc(Cc2cccc(I)c2)c2c(N)ncnc21` [3-IB-PP1], in assay [2], the “Akt phosphorylation at Thr308 and Ser473” value was “unperturbed”; the “phosphorylation on GSK3β at Ser9” value is reported as “unperturbed”. In [3], the HA-asAkt1 hyperphosphorylation result was “induced”. In [4], the “phosphorylation level of Ser9 on GSK3β” value is “decreased”. In assay [5], the “hyperphosphorylation on Thr308 and Ser473 of kinase dead mutants” value is “induced striking hyperphosphorylation”.
As for `CC(C)n1nc(-c2cc3cc(O)ccc3[nH]2)c2c(N)ncnc21` [PP242], in assay [1], the “PrINZ induced Thr308 phosphorylation” value is “unaffected” and the “PrINZ induced hyperphosphorylation at Ser473” value was “completely inhibited”.
Turning to `O=C(NCCCNc1nc(Nc2cccc(NC(=O)N3CCCC3)c2)ncc1I)c1cccs1` [BX-795], the “selectivity in panel of 220 kinases” value in the assay on 220 purified kinases is given as “selective for only PDK1 within the PI3K-mTORC1 pathway”. In addition, in [1], the “PrINZ induced Thr308 phosphorylation” value is listed as “significant decrease” and the “PrINZ induced hyperphosphorylation at Ser473” value is listed as “reduced”.
As for `COc1ccc2c(c1OC)N=C(NC(=O)c1cccnc1)N1CCN=C21` [PIK90], the “hyperphosphorylation induced by PrINZ (Thr308 and Ser473)” value in assay [1] is “significantly attenuated”. In assay [7], the “hyperphosphorylation on myr-HA-asAkt1” value is on record as “not inhibited”. Also, the “A-443654 induced translocation and Thr308 phosphorylation of Akt” value in assay [8] (2.5 µM PIK90 10 min before 2.5 µM A-443654 15 min) is on record as “inhibited”.
Consider `CCn1c(-c2nonc2N)nc2c(C#CC(C)(C)O)ncc(OC[C@H]3CCCNC3)c21` [GSK690693, 4-(2-(4-amino-1,2,5-oxadiazol-3-yl)-1-ethyl-7-{[(3S)-3-piperidinylmethyl]oxy}-1H-imidazo[4,5-c]pyridin-4-yl)-2-methyl-3-butyn-2-ol], for which the Akt hyperphosphorylation entry in the assay on Akt is “induces Akt hyperphosphorylation”.
For `COc1ccccc1N1CCN(c2ncnc3[nH]nc(Br)c23)CC1` [DG2], the “Akt phosphorylation at Thr308 and Ser473” value in [9] is on record as “does not induce”.
For `Cc1n[nH]c2ccc(-c3cncc(OC[C@@H](N)Cc4c[nH]c5ccccc45)c3)cc12` [A-443654], the “Akt phosphorylation at Thr308 and Ser473” value in assay [2] is “induced”. Also, the “phosphorylation on GSK3β at Ser9” value in assay [2] is reported as “potently inhibited”. In assay [8] (2.5 µM, 15 min, no growth factor stimulation), the “location of Akt” value is recorded as “translocation of Akt to the plasma membrane”. Further, the tumor growth entry in the assay with PC-3 tumor, in the assay with MiaPaCa-2 tumor and in the assay on 3T3-Akt1 tumor was “inhibit the growth” throughout.
